Laboratory results: paper PMC3694332 (Biopharmaceutics & drug disposition, 2009)
Read-outs that look alike come from different tables or passages of the source. Values belong to the molecule of their own block, whether it stands above or below them.

How the values were obtained:
[1] = test system: MRP1; conditions: cited from earlier work
[2] = test system: CaCo2 cell monolayers; conditions: cited from earlier work
[3] = test system: cellular GSH levels; conditions: 100 μM, 2 h incubation; cited from earlier work
[4] = cited from earlier work
[5] = rats; cited from earlier work
[6] = test system: MRP2; conditions: cited from earlier work
[7] = test system: MRP1; conditions: cited from earlier work; remark: listed apart in the source
[8] = test system: P-gp; conditions: verapamil or PSC833; Caco-2, MCF-7/ADR, MDA435/LCC6, MDA435/LCC6MDR1 cells; cited from earlier work
[9] = test system: P-gp; conditions: MCF7/ADR cells, 100 μM isothiocyanate, 2 h; cited from earlier work
[10] = test system: MRP1; conditions: Panc-1 cells, 100 μM isothiocyanate, 2 h; cited from earlier work
[11] = test system: BCRP; conditions: NHI-H460/MX20, BCRP; cited from earlier work
[12] = test system: BCRP; conditions: FTC 10 μM, 25 μM PEITC; cited from earlier work
[13] = test system: P-gp; conditions: cited from earlier work; for investigated as substrate (S)/inhibitor (I): 8226/Dox, P-gp
[14] = rat, in vivo, cited from earlier work
[15] = human, in vivo; cited from earlier work
[16] = rats, cited from earlier work
[17] = Effect of BITC co-administration on topotecan pharmacokinetics; conditions: Sprague-Dawley, rat, plasma

SMILES: C=CCN=C=S [Allyl isothiocyanate]
investigated as substrate (S)/inhibitor (I) ([1]; HL60/AR, MRP1): Allyl isothiocyanate (S)

SMILES: S=C=NCc1ccccc1 [BITC, benzyl isothiocyanate]
increase in accumulation of daunomycin [2]: 1.75 fold
GSH, % of control values in untreated cells [3]: 15.3±6.4 % of control
decrease of cellular GSH levels [3]: decreased

SMILES: CC[C@@]1(O)C(=O)OCc2c1cc1n(c2=O)Cc2cc3c(CNC)c(O)ccc3nc2-1 [N-desmethyl topotecan]
percent of N-desmethyl topotecan formed ([4]; in the plasma): less than 0.7%
percent of N-desmethyl topotecan formed ([4]; in the urine): 1–4%

SMILES: S=C=Nc1cccc2ccccc12 [NITC, α-naphthyl isothiocyanate]
Nonlinear pharmacokinetics [5]: Yes
decrease of cellular GSH levels [3]: not

SMILES: S=C=NCCc1ccccc1 [PEITC, phenethyl isothiocyanate]
increase of intracellular 14C accumulation by MK571 ([6]; 50 μM MK571, PEITC 1 μM): 2.5 fold
increase of intracellular 14C accumulation by MK571 ([6]; 50 μM MK571, PEITC 5 μM): 3.5 fold
increase of intracellular 14C accumulation by MK571 ([6]; 50 μM MK571, PEITC 10 μM): 4.5 fold
increase of intracellular 14C accumulation by MK571 ([6]; 50 μM MK571, PEITC 50 μM): 1.8 fold
intracellular 14C lower in MDCK/MRP2 than in wild type MDCKII cells ([6]; PEITC 1 μM): 55%
intracellular 14C lower in MDCK/MRP2 than in wild type MDCKII cells ([6]; PEITC 5 μM): 14%
intracellular 14C lower in MDCK/MRP2 than in wild type MDCKII cells ([6]; PEITC 10 μM): 12%
intracellular 14C lower in MDCK/MRP2 than in wild type MDCKII cells ([6]; PEITC 50 μM): 61%
change of 14C tracer accumulation by MK571 ([7]; 100 μM MK571, higher PEITC concentrations): did not change
increase of 14C tracer accumulation by MK571 ([7]; 2 h co-incubation with 100 μM MK571, PEITC 1 μM): 6.8 fold
increase of 14C tracer accumulation by MK571 ([7]; 2 h co-incubation with 100 μM MK571, PEITC 5 μM): 5.9 fold
increase of 14C tracer accumulation by MK571 ([7]; 2 h co-incubation with 100 μM MK571, PEITC 20 μM): 1.9 fold
accumulation of 14C-PEITC in absence and presence of P-gp inhibitor [8]: not changed
increase in accumulation of vinblastine [9]: not
increase in accumulation of vinblastine [10]: 2 fold
increase in accumulation of daunomycin [2]: 1.85 fold
GSH, % of control values in untreated cells [3]: 10±3.5 % of control
decrease of cellular GSH levels [3]: decreased
investigated as substrate (S)/inhibitor (I) [11]: Phenethyl isothiocyanate (S)
decrease of ATP-dependent accumulation of PEITC in inside-out vesicles by FTC [12]: 1.7 fold
investigated as substrate (S)/inhibitor (I) [13]: Phenethyl isothiocyanate (S)
clearance ([14]; 2 umol/kg): 0.696 L/h/kg
Half-life ([14]; iv, 66 mg/kg): 13.1 h (i.v.)
Cmax ([14]; po, 16.3 mg/kg): 42.1 µM
Tmax ([14]; po, 16.3 mg/kg): 2.0 h
oral bioavailability ([14]; po): high
Nonlinear pharmacokinetics [14]: Yes
CL/F [15]: 29.5 L/h
Cmax [15]: 0.928 µM
Half-life [15]: 4.9 h
Tmax [15]: 2.6 h

SMILES: C[S+]([O-])CCCCN=C=S (stereo not drawn) [Sulforaphane, sulforaphane]
accumulation of intracellular sulforaphane with inhibitors of MRP1 ([1]; MRP1 over-expressing cells): increased
investigated as substrate (S)/inhibitor (I) [13]: Sulforaphane (S)
accumulation of intracellular sulforaphane with inhibitors of P-gp ([13]; P-gp over-expressing cells): increased
Cmax ([16]; 50 μmol oral (Table 1: 88.5 mg oral), plasma): 20 µM
Half-life ([16]; 50 μmol oral (Table 1: 88.5 mg oral)): 2.23 h
Half-life ([16]; 50 μmol oral (Table 1: 88.5 mg oral), listed as sulforaphane): about 2.2 h
Tmax ([16]; 88.5 mg oral): 4 h

AUC(0-inf) ([17]; iv, 1 mg/kg, AUC0–∞, i.v. administration of 1 mg/kg topotecan, four rats): 0.707 µg·h/mL
AUC(0-t) ([17]; po, 2 mg/kg, AUC0–720 min, topotecan alone (2 mg/kg dose)): 0.182 µg·h/mL
SMILES: CC[C@@]1(O)C(=O)OCc2c1cc1n(c2=O)Cc2cc3c(CN(C)C)c(O)ccc3nc2-1 [topotecan]
